The NIST ThermoML archive (doi:10.1016/j.tca.2015.02.020)
± gives the expanded uncertainty stated by the source.

Experiment: molar heat capacity at constant pressure; xn = mol fraction of the nth substance listed
Conditions: 101 kPa, Small sample (50 mg) DSC

NCCCO [3-amino-1-propanol] + O
molar heat capacity at constant pressure (125.42 K, Glass, x1 = 0.19): 28.29 ± 5.8 J/K/mol | molar heat capacity at constant pressure (125.42 K, Glass, x1 = 0.26): 32.2 ± 6.6 J/K/mol | molar heat capacity at constant pressure (126.01 K, Glass, x1 = 0.68): 47.75 ± 2.3 J/K/mol | molar heat capacity at constant pressure (126.94 K, Glass, x1 = 0.19): 29.15 ± 1.2 J/K/mol | molar heat capacity at constant pressure (127.1 K, Glass, x1 = 0.26): 32.2 ± 1.3 J/K/mol | molar heat capacity at constant pressure (127.56 K, Glass, x1 = 0.16): 28.24 ± 1.1 J/K/mol | molar heat capacity at constant pressure (127.59 K, Glass, x1 = 0.16): 29.05 ± 5.7 J/K/mol | molar heat capacity at constant pressure (128.06 K, Glass, x1 = 0.68): 51.16 ± 10 J/K/mol | molar heat capacity at constant pressure (129.29 K, Glass, x1 = 0.19): 30.02 ± 6.1 J/K/mol | molar heat capacity at constant pressure (130.07 K, Glass, x1 = 0.26): 33.19 ± 6.6 J/K/mol | molar heat capacity at constant pressure (130.83 K, Glass, x1 = 0.16): 29.05 ± 1.4 J/K/mol | molar heat capacity at constant pressure (130.83 K, Glass, x1 = 0.68): 52.29 ± 2.3 J/K/mol | molar heat capacity at constant pressure (131.76 K, Glass, x1 = 0.19): 30.6 ± 1.4 J/K/mol | molar heat capacity at constant pressure (131.92 K, Glass, x1 = 0.26): 33.19 ± 1.3 J/K/mol | molar heat capacity at constant pressure (132.24 K, Glass, x1 = 0.16): 30.41 ± 6 J/K/mol | molar heat capacity at constant pressure (132.71 K, Glass, x1 = 0.68): 52.86 ± 11 J/K/mol | molar heat capacity at constant pressure (133.95 K, Glass, x1 = 0.19): 31.46 ± 6.3 J/K/mol | molar heat capacity at constant pressure (134.1 K, Glass, x1 = 0.16): 30.14 ± 1.4 J/K/mol | molar heat capacity at constant pressure (134.11 K, Glass, x1 = 0.68): 54 ± 2.3 J/K/mol | molar heat capacity at constant pressure (134.74 K, Glass, x1 = 0.26): 34.17 ± 6.9 J/K/mol | molar heat capacity at constant pressure (135.04 K, Glass, x1 = 0.19): 31.46 ± 1.4 J/K/mol | molar heat capacity at constant pressure (135.2 K, Glass, x1 = 0.26): 33.85 ± 1.3 J/K/mol | molar heat capacity at constant pressure (136.92 K, Glass, x1 = 0.16): 32.04 ± 6.5 J/K/mol | molar heat capacity at constant pressure (137.39 K, Glass, x1 = 0.68): 54.57 ± 11 J/K/mol | molar heat capacity at constant pressure (138.63 K, Glass, x1 = 0.19): 33.19 ± 6.6 J/K/mol | molar heat capacity at constant pressure (139.41 K, Glass, x1 = 0.26): 35.49 ± 7.2 J/K/mol | molar heat capacity at constant pressure (140.66 K, Glass, x1 = 0.16): 31.77 ± 1.4 J/K/mol | molar heat capacity at constant pressure (140.66 K, Glass, x1 = 0.68): 56.27 ± 2.3 J/K/mol | molar heat capacity at constant pressure (141.59 K, Glass, x1 = 0.16): 33.94 ± 6.8 J/K/mol | molar heat capacity at constant pressure (141.6 K, Glass, x1 = 0.19): 33.48 ± 1.4 J/K/mol | molar heat capacity at constant pressure (141.75 K, Glass, x1 = 0.26): 35.82 ± 1.6 J/K/mol | molar heat capacity at constant pressure (142.07 K, Glass, x1 = 0.68): 56.27 ± 11 J/K/mol | molar heat capacity at constant pressure (143.47 K, Glass, x1 = 0.19): 34.92 ± 6.9 J/K/mol | molar heat capacity at constant pressure (143.95 K, Glass, x1 = 0.16): 32.58 ± 1.4 J/K/mol | molar heat capacity at constant pressure (143.95 K, Glass, x1 = 0.68): 57.98 ± 2.3 J/K/mol | molar heat capacity at constant pressure (144.1 K, Glass, x1 = 0.26): 36.47 ± 7.2 J/K/mol | molar heat capacity at constant pressure (144.88 K, Glass, x1 = 0.19): 34.64 ± 1.4 J/K/mol | molar heat capacity at constant pressure (145.04 K, Glass, x1 = 0.26): 36.8 ± 1.6 J/K/mol | molar heat capacity at constant pressure (146.28 K, Glass, x1 = 0.16): 36.65 ± 7.3 J/K/mol | molar heat capacity at constant pressure (146.75 K, Glass, x1 = 0.68): 56.84 ± 11 J/K/mol | molar heat capacity at constant pressure (148.16 K, Glass, x1 = 0.19): 37.23 ± 7.5 J/K/mol | molar heat capacity at constant pressure (148.79 K, Glass, x1 = 0.26): 39.1 ± 7.9 J/K/mol | molar heat capacity at constant pressure (150.53 K, Glass, x1 = 0.16): 34.75 ± 1.4 J/K/mol | molar heat capacity at constant pressure (150.53 K, Glass, x1 = 0.68): 60.25 ± 2.8 J/K/mol | molar heat capacity at constant pressure (150.98 K, Glass, x1 = 0.16): 40.73 ± 8.1 J/K/mol | molar heat capacity at constant pressure (151.45 K, Glass, x1 = 0.68): 57.98 ± 11 J/K/mol | molar heat capacity at constant pressure (151.46 K, Glass, x1 = 0.19): 36.94 ± 1.4 J/K/mol | molar heat capacity at constant pressure (151.62 K, Glass, x1 = 0.26): 39.1 ± 1.6 J/K/mol | molar heat capacity at constant pressure (152.86 K, Glass, x1 = 0.19): 40.99 ± 8.4 J/K/mol | molar heat capacity at constant pressure (153.81 K, Glass, x1 = 0.16): 36.65 ± 1.6 J/K/mol | molar heat capacity at constant pressure (153.82 K, Glass, x1 = 0.68): 61.96 ± 2.8 J/K/mol | molar heat capacity at constant pressure (154.75 K, Glass, x1 = 0.19): 38.39 ± 1.7 J/K/mol | molar heat capacity at constant pressure (154.91 K, Glass, x1 = 0.26): 40.42 ± 1.6 J/K/mol | molar heat capacity at constant pressure (156.15 K, Glass, x1 = 0.68): 60.25 ± 12 J/K/mol | molar heat capacity at constant pressure (160.4 K, Glass, x1 = 0.68): 65.37 ± 2.8 J/K/mol | molar heat capacity at constant pressure (161.49 K, Glass, x1 = 0.26): 45.02 ± 2 J/K/mol | molar heat capacity at constant pressure (163.69 K, Glass, x1 = 0.68): 67.64 ± 2.8 J/K/mol | molar heat capacity at constant pressure (165.08 K, Liquid, x1 = 0.16): 65.7 ± 13 J/K/mol | molar heat capacity at constant pressure (166.96 K, Liquid, x1 = 0.19): 68.12 ± 14 J/K/mol | molar heat capacity at constant pressure (169.79 K, Liquid, x1 = 0.16): 66.79 ± 13 J/K/mol | molar heat capacity at constant pressure (170.28 K, Liquid, x1 = 0.16): 66.25 ± 2.7 J/K/mol | molar heat capacity at constant pressure (171.23 K, Liquid, x1 = 0.19): 71.87 ± 3.2 J/K/mol | molar heat capacity at constant pressure (171.67 K, Liquid, x1 = 0.19): 69.27 ± 14 J/K/mol | molar heat capacity at constant pressure (173.58 K, Liquid, x1 = 0.16): 66.79 ± 2.7 J/K/mol | molar heat capacity at constant pressure (174.5 K, Liquid, x1 = 0.16): 67.06 ± 14 J/K/mol | molar heat capacity at constant pressure (174.5 K, Liquid, x1 = 0.26): 77.55 ± 15 J/K/mol | molar heat capacity at constant pressure (174.53 K, Liquid, x1 = 0.19): 71.87 ± 3.2 J/K/mol | molar heat capacity at constant pressure (174.68 K, Liquid, x1 = 0.26): 82.48 ± 3.6 J/K/mol | molar heat capacity at constant pressure (176.39 K, Liquid, x1 = 0.19): 69.56 ± 14 J/K/mol | molar heat capacity at constant pressure (179.21 K, Liquid, x1 = 0.16): 67.6 ± 14 J/K/mol | molar heat capacity at constant pressure (179.21 K, Liquid, x1 = 0.26): 77.88 ± 16 J/K/mol | molar heat capacity at constant pressure (179.69 K, Liquid, x1 = 0.68): 127.32 ± 26 J/K/mol | molar heat capacity at constant pressure (180.18 K, Liquid, x1 = 0.16): 67.88 ± 3 J/K/mol | molar heat capacity at constant pressure (180.19 K, Liquid, x1 = 0.68): 138.69 ± 5.7 J/K/mol | molar heat capacity at constant pressure (181.09 K, Liquid, x1 = 0.19): 69.85 ± 14 J/K/mol | molar heat capacity at constant pressure (181.12 K, Liquid, x1 = 0.19): 72.74 ± 3.2 J/K/mol | molar heat capacity at constant pressure (181.28 K, Liquid, x1 = 0.26): 82.81 ± 3.6 J/K/mol | molar heat capacity at constant pressure (183.49 K, Liquid, x1 = 0.16): 68.69 ± 3 J/K/mol | molar heat capacity at constant pressure (183.49 K, Liquid, x1 = 0.68): 138.69 ± 5.7 J/K/mol | molar heat capacity at constant pressure (183.93 K, Liquid, x1 = 0.16): 68.42 ± 14 J/K/mol | molar heat capacity at constant pressure (183.93 K, Liquid, x1 = 0.26): 78.21 ± 16 J/K/mol | molar heat capacity at constant pressure (184.41 K, Liquid, x1 = 0.68): 127.32 ± 26 J/K/mol | molar heat capacity at constant pressure (184.43 K, Liquid, x1 = 0.19): 73.31 ± 3.2 J/K/mol | molar heat capacity at constant pressure (184.59 K, Liquid, x1 = 0.26): 83.14 ± 3.6 J/K/mol | molar heat capacity at constant pressure (185.82 K, Liquid, x1 = 0.19): 70.43 ± 14 J/K/mol | molar heat capacity at constant pressure (188.65 K, Liquid, x1 = 0.16): 69.5 ± 14 J/K/mol | molar heat capacity at constant pressure (188.65 K, Liquid, x1 = 0.26): 78.86 ± 16 J/K/mol | molar heat capacity at constant pressure (189.12 K, Liquid, x1 = 0.68): 127.32 ± 26 J/K/mol | molar heat capacity at constant pressure (190.09 K, Liquid, x1 = 0.16): 70.05 ± 3 J/K/mol | molar heat capacity at constant pressure (190.1 K, Liquid, x1 = 0.68): 139.26 ± 5.7 J/K/mol | molar heat capacity at constant pressure (190.54 K, Liquid, x1 = 0.19): 71.29 ± 14 J/K/mol | molar heat capacity at constant pressure (191.04 K, Liquid, x1 = 0.19): 75.04 ± 3.2 J/K/mol | molar heat capacity at constant pressure (191.2 K, Liquid, x1 = 0.26): 84.12 ± 3.6 J/K/mol | molar heat capacity at constant pressure (193.38 K, Liquid, x1 = 0.16): 70.32 ± 14 J/K/mol | molar heat capacity at constant pressure (193.38 K, Liquid, x1 = 0.26): 79.52 ± 16 J/K/mol | molar heat capacity at constant pressure (193.4 K, Liquid, x1 = 0.16): 70.05 ± 3 J/K/mol | molar heat capacity at constant pressure (193.41 K, Liquid, x1 = 0.68): 139.83 ± 5.7 J/K/mol | molar heat capacity at constant pressure (193.85 K, Liquid, x1 = 0.68): 127.32 ± 26 J/K/mol | molar heat capacity at constant pressure (194.35 K, Liquid, x1 = 0.19): 75.62 ± 3.2 J/K/mol | molar heat capacity at constant pressure (194.51 K, Liquid, x1 = 0.26): 84.78 ± 3.6 J/K/mol | molar heat capacity at constant pressure (195.27 K, Liquid, x1 = 0.19): 71.87 ± 14 J/K/mol | molar heat capacity at constant pressure (198.1 K, Liquid, x1 = 0.16): 71.41 ± 14 J/K/mol | molar heat capacity at constant pressure (198.1 K, Liquid, x1 = 0.26): 79.85 ± 16 J/K/mol | molar heat capacity at constant pressure (198.58 K, Liquid, x1 = 0.68): 127.89 ± 26 J/K/mol | molar heat capacity at constant pressure (199.99 K, Liquid, x1 = 0.19): 73.02 ± 15 J/K/mol | molar heat capacity at constant pressure (200.03 K, Liquid, x1 = 0.68): 140.96 ± 6.3 J/K/mol | molar heat capacity at constant pressure (200.98 K, Liquid, x1 = 0.19): 77.06 ± 3.2 J/K/mol | molar heat capacity at constant pressure (201.13 K, Liquid, x1 = 0.26): 86.42 ± 3.6 J/K/mol | molar heat capacity at constant pressure (202.83 K, Liquid, x1 = 0.16): 72.49 ± 15 J/K/mol | molar heat capacity at constant pressure (202.84 K, Liquid, x1 = 0.26): 80.84 ± 16 J/K/mol | molar heat capacity at constant pressure (203.31 K, Liquid, x1 = 0.68): 129.03 ± 26 J/K/mol | molar heat capacity at constant pressure (203.35 K, Liquid, x1 = 0.68): 141.53 ± 6.3 J/K/mol | molar heat capacity at constant pressure (204.28 K, Liquid, x1 = 0.19): 77.64 ± 3.2 J/K/mol | molar heat capacity at constant pressure (204.44 K, Liquid, x1 = 0.26): 86.75 ± 3.6 J/K/mol | molar heat capacity at constant pressure (204.72 K, Liquid, x1 = 0.19): 73.89 ± 15 J/K/mol
